# From the supplement of paper PMC10331698
# ± gives the standard deviation of the averaged measurements.
# Experiments:
# Assay in all cases: level (log10 ratio to DMSO vehicle control); higher = higher biomarker level / cell amount than vehicle control
# Conditions in all cases: in DMSO
# Perfluoropentanoic acid = compound: O=C(O)C(F)(F)C(F)(F)C(F)(F)C(F)(F)F [Perfluoropentanoic acid]
# Protocol: (§1)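 BioMAP Diversity Plus panel of 12 human primary cell co-culture systems (3C, 4H, LPS, SAg, BT, BF4T, BE3C, CASM3C, HDF3CGF, KF3CT, MyoF, Mphg). Compounds were added 1 h before stimulation and left for 24 h (MyoF 48 h; BT 72 h for soluble read-outs or 6 d for IgG). Biomarkers were read by ELISA, cytotoxicity by SRB, PBMC viability and proliferation by Alamar Blue. Each well value was divided by the mean of 8 DMSO control wells on the same plate and log10 transformed; duplicate blinded samples were tested at 4 concentrations.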
# [1] = compound: O=C(O)C(F)(F)C(F)(F)C(F)(F)OC(F)(C(F)(F)F)C(F)(F)F [Perfluoro-4-isopropoxybutanoic acid]
# Protocol: as §1
# [2] = compound: COC(=O)CCC(F)(F)C(F)(F)C(F)(F)C(F)(F)F [Methyl 2H,2H,3H,3H-perfluoroheptanoate]
# Protocol: as §1
# Perfluorodecanoic acid = compound: O=C(O)C(F)(F)C(F)(F)C(F)(F)C(F)(F)C(F)(F)C(F)(F)C(F)(F)C(F)(F)C(F)(F)F [Perfluorodecanoic acid]
# Protocol: as §1
# [3] = compound: C=CC(F)(F)C(F)(F)C(F)(F)C(F)(F)C(F)(F)C(F)(F)C(F)(F)C(F)(F)C=C [1,8-Divinylperfluorooctane]
# Protocol: as §1
# Pentafluoropropionamide = compound: NC(=O)C(F)(F)C(F)(F)F [Pentafluoropropionamide]
# Protocol: as §1
# [4] = compound: O=C(O)C(F)(F)OC(F)(F)C(F)(F)OC(F)(F)F [Perfluoro-3,6-dioxaheptanoic acid]
# Protocol: as §1
Test System,level (log10) (Perfluoropentanoic acid; 6700 nM),level (log10) (Perfluoropentanoic acid; 20000 nM),level (log10) (Perfluoropentanoic acid; 60000 nM),level (log10) ([1]; 6700 nM),level (log10) ([1]; 20000 nM),level (log10) ([1]; 60000 nM),level (log10) ([2]; 6700 nM),level (log10) ([2]; 20000 nM),level (log10) ([2]; 60000 nM),level (log10) (Perfluorodecanoic acid; 6700 nM),level (log10) (Perfluorodecanoic acid; 20000 nM),level (log10) ([3]; 6700 nM),level (log10) ([3]; 20000 nM),level (log10) (Pentafluoropropionamide; 6700 nM),level (log10) (Pentafluoropropionamide; 20000 nM),level (log10) (Pentafluoropropionamide; 60000 nM),level (log10) ([4]; 6700 nM),level (log10) ([4]; 20000 nM),level (log10) ([4]; 60000 nM)
HDF3CGF:PAI-I,-0.0055 ± 0.026,-0.015 ± 0.013,0.007 ± 0.0014,-0.001 ± 0.033,-0.0115 ± 0.025,-0.0165 ± 0.013,0.0005 ± 0.0035,-0.0055 ± 0.0092,0.002 ± 0.021,0.15 ± 0.051,-0.107 ± 0.1,0 ± 0.013,-0.0065 ± 0.012,0.0125 ± 0.04,-0.011 ± 0.044,0 ± 0.014,-0.0525 ± 0.00071,0.0225 ± 0.037,0.06
lMphg:M-CSF,-0.028 ± 0.045,0.006 ± 0.035,0.0095 ± 0.049,-0.016 ± 0.0028,-0.0185 ± 0.015,0.016 ± 0.0085,-0.0325 ± 0.0078,-0.0275 ± 0.005,0.0075 ± 0.022,0.019 ± 0.021,0.0105 ± 0.037,-0.0315 ± 0.005,0.0015 ± 0.039,-0.0185 ± 0.0035,-0.0285 ± 0.0021,0.002 ± 0.028,-0.011 ± 0.016,0.003 ± 0.013,-0.0345 ± 0.029
CASM3C:HLA-DR,-0.019 ± 0.014,-0.022 ± 0.023,0.003 ± 0.054,-0.0205 ± 0.029,-0.0315 ± 0.023,-0.013 ± 0.04,-0.0185 ± 0.005,-0.014 ± 0.018,-0.011 ± 0.028,0,0.006 ± 0.014,-0.0125 ± 0.011,-0.0155 ± 0.0092,-0.005 ± 0.0042,0.0045 ± 0.0092,-0.001 ± 0.018,-0.0355 ± 0.069,-0.0385 ± 0.074,-0.047 ± 0.057
KF3CT:IL-1alpha,-0.004 ± 0.017,0.004 ± 0.0028,-0.0115 ± 0.021,0.0225 ± 0.019,0.0165 ± 0.0035,0.014 ± 0.025,-0.0295 ± 0.019,-0.019 ± 0.018,-0.0095 ± 0.029,-0.0535 ± 0.0035,-0.068 ± 0.0042,-0.0455 ± 0.013,-0.0075 ± 0.057,-0.0165 ± 0.005,-0.034 ± 0.0085,-0.0105 ± 0.044,-0.011 ± 0.025,0.032 ± 0.03,-0.1 ± 0.067
lMphg:CD69,-0.0315 ± 0.0092,-0.0525 ± 0.013,0.0175 ± 0.077,-0.044 ± 0.014,-0.069 ± 0.021,-0.0455 ± 0.054,-0.016 ± 0.028,-0.029 ± 0.033,0.006 ± 0.017,-0.013 ± 0.054,-0.055 ± 0.052,-0.013 ± 0.0042,-0.011 ± 0.014,-0.021 ± 0.0071,-0.036,0.0125 ± 0.077,0.0255 ± 0.069,0.0085 ± 0.033,0.058 ± 0.0085
CASM3C:LDLR,-0.0085 ± 0.0064,-0.0045 ± 0.0078,-0.0095 ± 0.025,0.012 ± 0.0014,0.017 ± 0.011,0 ± 0.0014,0.016 ± 0.0099,0.0095 ± 0.005,0.033 ± 0.028,-0.0045 ± 0.0078,0.0105 ± 0.03,0.008,0.0495 ± 0.019,0.003 ± 0.042,0.0045 ± 0.011,0.0295 ± 0.015,-0.0145 ± 0.033,-0.013 ± 0.037,-0.0015 ± 0.005
BE3C:PAI-I,-0.021 ± 0.0071,-0.02 ± 0.0057,0.015 ± 0.057,-0.0155 ± 0.028,0.002 ± 0.017,0.0115 ± 0.032,-0.0065 ± 0.025,-0.006 ± 0.044,-0.0055 ± 0.005,-0.0475 ± 0.013,-0.4 ± 0.047,0.016 ± 0.017,0.016 ± 0.016,0.002 ± 0.0057,-0.009 ± 0.03,-0.016 ± 0.0028,-0.037 ± 0.055,0.0125 ± 0.053,0.0055 ± 0.018
lMphg:SRB,-0.0125 ± 0.0035,-0.0065 ± 0.0092,0.01 ± 0.018,-0.003 ± 0.0071,-0.0035 ± 0.005,-0.009 ± 0.023,-0.008 ± 0.02,-0.016 ± 0.0057,-0.0095 ± 0.023,0.009 ± 0.0085,0.004 ± 0.0057,0.0125 ± 0.00071,0.019 ± 0.0028,0.004 ± 0.0071,-0.0025 ± 0.0092,-0.001 ± 0.0014,-0.0015 ± 0.0092,0.0025 ± 0.011,-0.002 ± 0.016
lMphg:IL-1alpha,-0.0095 ± 0.022,-0.0195 ± 0.046,0.01 ± 0.05,-0.005 ± 0.0057,0.0045 ± 0.005,0.009 ± 0.028,-0.0215 ± 0.056,-0.0265 ± 0.035,0.029 ± 0.082,0.0085 ± 0.0078,0.013 ± 0.02,0.003 ± 0.027,0.046 ± 0.034,-0.0005 ± 0.016,-0.0055 ± 0.0092,0.0355 ± 0.083,-0.0025 ± 0.046,0.007 ± 0.035,-0.005 ± 0.027
3C:CD141/Thrombomodulin,0.024 ± 0.021,0.0345 ± 0.005,0.0685 ± 0.042,-0.019 ± 0.0014,-0.0365 ± 0.019,-0.015 ± 0.0028,-0.0355 ± 0.032,-0.017 ± 0.0042,-0.0225 ± 0.013,-0.019 ± 0.025,-0.0445 ± 0.012,-0.0215 ± 0.022,-0.0055 ± 0.023,-0.0355 ± 0.032,-0.0165 ± 0.005,-0.027 ± 0.018,-0.037 ± 0.04,-0.0105 ± 0.044,-0.0255 ± 0.077
MyoF:Collagen IV,-0.007 ± 0.025,-0.012 ± 0.016,-0.0025 ± 0.023,-0.007 ± 0.035,-0.0025 ± 0.06,0.014 ± 0.047,-0.0335 ± 0.03,-0.0285 ± 0.021,-0.0115 ± 0.029,0.334 ± 0.037,0.38 ± 0.086,-0.023 ± 0.0085,0.0115 ± 0.044,-0.0295 ± 0.03,-0.0275 ± 0.025,-0.007 ± 0.051,-0.011 ± 0.0085,0.0045 ± 0.013,0.0015 ± 0.021
